Data taken from patent publication US9040516B2, “Uracil derivative and use thereof for medical purposes” (SUMITOMO DAINIPPON PHARMA CO., LTD., priority 2011, dated 2015).

These compounds were tested against T1, human neutrophil elastase (Homo sapiens, UniProt P08246) (assay: Inhibitory action against human neutrophil elastase (Test Example 1; fluorogenic substrate MeOSuc-AAPV-AMC, buffer with 2M NaCl, 0.002% Brij-35)). Conditions: 37° C., read-out: IC50 value (compound concentration required for 50% inhibition of human neutrophil elastase).
T1 construct: purchased Elastin Products Company
T1 sequence (P08246 30-267): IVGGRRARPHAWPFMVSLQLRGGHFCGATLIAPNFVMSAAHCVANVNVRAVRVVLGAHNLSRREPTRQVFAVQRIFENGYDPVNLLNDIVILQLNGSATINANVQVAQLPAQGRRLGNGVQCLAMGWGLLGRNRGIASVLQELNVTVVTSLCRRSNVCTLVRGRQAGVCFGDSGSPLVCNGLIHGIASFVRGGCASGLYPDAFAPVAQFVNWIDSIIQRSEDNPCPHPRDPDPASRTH
Type: biochemical
Protocol: Assay buffer (0.4 unit/ml HNE (human neutrophil elastase, available from Elastin Products Company), 200 mM HEPES [N-(2-hydroxyethyl)piperazine-N′-(2-ethanesulfonic acid)], pH 7.5, 2M NaCl, 0.002% Brij-35) 100 μl, water for injection 40 μl and DMSO (dimethyl sulfoxide) solution of the present compound 20 μl were mixed in a 96 well plate and the mixed solutions were pre-incubated at 37° C. for five minutes. After pre-incubation, MeOSuc-AAPV-AMC (methoxysuccinyl-alanyl-alanyl-prolyl-valyl-aminomethyl cumaride (available from Sigma Aldrich Co.) solution as fluorogenic substrate (which was dissolved in 10% DMSO solution so as to adjust to 0.5 mM) 40 μl was added to the above-prepared mixed solution so as to initiate the reaction, and the mixture was incubated at 37° C. for five minutes. The fluorescence intensity of AMC was measured at an excitation wavelength of 380 nm and a fluorescence wavelength of 460 nm and the inhibition ratio was determined.

IC50	SMILES
1290 nM	CNC(=O)CCCn1c(=O)c(-c2ccnn2-c2ccc(C#N)cc2)c(C)n(-c2cccc(C(F)(F)F)c2)c1=O [Example 80, 4-[5-[1-(4-cyanophenyl)-1H-pyrazol-5-yl]-4-methyl-2,6-dioxo-3-(3-trifluoromethylphenyl)-2,3-dihydropyrimidin-1(6H)-yl]-N-methylbutaneamide]
170 nM	CCOC(=O)CCCn1c(=O)c(-c2ccnn2-c2ccc(C#N)cc2)c(C)n(-c2cccc(C(F)(F)F)c2)c1=O [Example 5, 4-[5-[1-(4-cyanophenyl)-1H-pyrazol-5-yl]-4-methyl-2,6-dioxo-3-(3-trifluoromethylphenyl)-2,3-dihydropyrimidin-1(6H)-yl]butanoic acid ethyl ester]
147 nM	Cc1c(-c2ccnn2-c2ccc(C#N)cc2)c(=O)n(CCCCO)c(=O)n1-c1cccc(C(F)(F)F)c1 [Example 84, 4-[5-[3-(4-hydroxybutyl)-6-methyl-2,4-dioxo-1-(3-trifluoromethylphenyl)-1,2,3,4-tetrahydropyrimidin-5-yl]-1H-pyrazol-1-yl]benzonitrile]
114 nM	Cc1c(-c2ccnn2-c2ccc(C#N)cc2)c(=O)n(CCN(C)C)c(=O)n1-c1cccc(C(F)(F)F)c1 [Example 69, 4-[5-[3-(2-Dimethylaminoethyl)-6-methyl-2,4-dioxo-1-(3-trifluoromethylphenyl)-1,2,3,4-tetrahydropyrimidin-5-yl]-1H-pyrazol-1-yl]benzonitrile]
13900 nM	Cc1c(-c2ccnn2-c2ccc(C#N)cc2)c(=O)n(C)c(=O)n1-c1cccc(C(=O)N(C)C)c1 [Example 106, 3-[5-[1-(4-cyanophenyl)1H-pyrazol-5-yl]-3,6-dimethyl-2,4-dioxo-3,4-dihydropyrimidin-1(2H)yl]-N,N-dimethylbenzamide]
616 nM	Cc1c(-c2ccnn2-c2ccc(C#N)cc2)c(=O)n(CCCC(=O)N(C)C)c(=O)n1-c1cccc(C(F)(F)F)c1 [Example 81, 4-[5-[1-(4-cyanophenyl)-1H-pyrazol-5-yl]-4-methyl-2,6-dioxo-3-(3-trifluoromethylphenyl)-2,3-dihydropyrimidin-1(6H)-yl]-N,N-dimethylbutaneamide]

More lines, now with the values behind:

SMILES	IC50
Cc1c(-c2ccnn2-c2ccc(C#N)cc2)c(=O)n(C)c(=O)n1-c1cccc(C(F)(F)F)c1 [Example 31, 4-[5-[3,6-dimethyl-2,4-dioxo-1-(3-trifluoromethylphenyl)-1,2,3,4-tetrahydropyrimidin-5-yl]-1H-pyrazol-1-yl]benzonitrile]	19 nM
Cc1c(-c2ccnn2-c2ccc(C#N)cc2)c(=O)n(C)c(=O)n1-c1cccc([N+](=O)[O-])c1 [Example 18, 4-[5-[1-(3-nitrophenyl)-3,6-dimethyl-2,4-dioxo-1,2,3,4-tetrahydropyrimidin-5-yl]-1H-pyrazol-1-yl]benzonitrile]	47 nM
Cc1c(-c2ccnn2-c2ccc(C#N)cc2)c(=O)n(C)c(=O)n1-c1ccc(F)c(C(F)(F)F)c1 [Example 13, 4-[5-[1-(4-fluoro-3-trifluorophenyl)-3,6-dimethyl-2,4-dioxo-1,2,3,4-tetrahydropyrimidin-5-yl]-1H-pyrazol-1-yl]benzonitrile]	86 nM
Cc1c(-c2ccnn2-c2ccc(C#N)cc2)c(=O)n(C)c(=O)n1-c1cccc(-c2ccccc2)c1 [Example 107, 4-(5-(1-(Biphenyl-3-yl)-3,6-dimethyl-2,4-dioxo-1,2,3,4-tetrahydropyrimidin-5-yl)-1H-pyrazol-1-yl)benzonitrile]	5400 nM

Same assay, conditions: at 100 μM

Inhibition ratio (%)	SMILES
49%	Cc1c(-c2ccnn2-c2cccc(C#N)c2)c(=O)n(C)c(=O)n1-c1cccc(C(F)(F)F)c1 [Example 35, 3-[5-[3,6-dimethyl-2,4-dioxo-1-(3-trifluoromethylphenyl)-1,2,3,4-tetrahydropyrimidin-5-yl]-1H-pyrazol-1-yl]benzonitrile]
90%	Cc1c(-c2ccnn2-c2ccc(C#N)cc2)c(=O)n(C)c(=O)n1-c1ccc(C(F)(F)F)cc1 [Example 16, 4-[5-[3,6-dimethyl-2,4-dioxo-1-(4-trifluoromethylphenyl)-1,2,3,4-tetrahydropyrimidin-5-yl]-1H-pyrazol-1-yl]benzonitrile]
